Test results taken from patent publication US12152031B2, “Biodefense agents” (priority 2018, dated 2024).
≈ marks a conversion by molar mass, not a printed value.

Assays:
Assay in all cases: microbe, parasite or virus in culture
Format in all cases: cell-based
Burkholderia mallei = conditions: for MIC: read-out: MIC range
Yersinia pestis = conditions: for MIC: read-out: MIC range
[1] = test system: Burkholderia pseudomallei; conditions: Burkholderia pseudomallei; for MIC: read-out: MIC range
Francisella tularensis = conditions: for MIC: read-out: MIC range
Bacillus anthracis = conditions: for MIC: read-out: MIC range

Row | Compound | MIC50 (Burkholderia mallei) | MIC90 (Burkholderia mallei) | MIC (Burkholderia mallei) | MIC50 (Yersinia pestis) | MIC90 (Yersinia pestis) | MIC (Yersinia pestis) | MIC50 [1] | MIC90 [1] | MIC50 (Francisella tularensis) | MIC90 (Francisella tularensis) | MIC (Francisella tularensis) | MIC50 (Bacillus anthracis) | MIC90 (Bacillus anthracis) | MIC (Bacillus anthracis) | MIC [1]
1 | CCCN1[C@H](CCNC(C)=N)CCC[C@H]1c1ccc(-n2cc3cc(-c4cc(CCC[C@H](C)N)cc(Cl)c4F)[nH]c3nc2=O)cc1 [RX-D5] | 0.06 µg/mL (≈ 0.0946 µM) | 0.12 µg/mL (≈ 0.189 µM) | 0.03 to 0.12 µg/mL (≈ 0.0473 to 0.189 µM) | 0.12 µg/mL (≈ 0.189 µM) | 0.25 µg/mL (≈ 0.394 µM) | 0.03 to 0.5 µg/mL (≈ 0.0473 to 0.788 µM) | 4 µg/mL (≈ 6.31 µM) | 8 µg/mL (≈ 12.6 µM) | 0.06 µg/mL (≈ 0.0946 µM) | 0.12 µg/mL (≈ 0.189 µM) | 0.004 to 1 µg/mL (≈ 0.00631 to 1.58 µM) | 0.06 µg/mL (≈ 0.0946 µM) | 0.06 µg/mL (≈ 0.0946 µM) | 0.015 to 0.12 µg/mL (≈ 0.0237 to 0.189 µM) | –
2 | C[C@H](N)CCCc1cc(Cl)c(F)c(-c2cc3cn(-c4ccc([C@@H]5CCC[C@@H](CCNC(=N)CN)N5)cc4)c(=O)nc3[nH]2)c1 [RX-D6] | 0.12 µg/mL (≈ 0.198 µM) | 0.25 µg/mL (≈ 0.412 µM) | 0.12 to 0.25 µg/mL (≈ 0.198 to 0.412 µM) | 0.5 µg/mL (≈ 0.823 µM) | 1 µg/mL (≈ 1.65 µM) | 0.015 to 1 µg/mL (≈ 0.0247 to 1.65 µM) | > 8 µg/mL | > 8 µg/mL | 0.06 µg/mL (≈ 0.0988 µM) | 0.25 µg/mL (≈ 0.412 µM) | 0.03 to 0.5 µg/mL (≈ 0.0494 to 0.823 µM) | 0.12 µg/mL (≈ 0.198 µM) | 0.25 µg/mL (≈ 0.412 µM) | 0.06 to 0.25 µg/mL (≈ 0.0988 to 0.412 µM) | –
3 | C=C[C@H](N)CCCc1cc(Cl)c(F)c(-c2cc3cn(-c4ccc([C@@H]5CCC[C@@H](CCNC(C)=N)N5)c(SC)c4)c(=O)nc3[nH]2)c1 [RX-D7] | 0.25 µg/mL (≈ 0.384 µM) | 0.25 µg/mL (≈ 0.384 µM) | 0.06 to 0.5 µg/mL (≈ 0.0923 to 0.769 µM) | 0.25 µg/mL (≈ 0.384 µM) | 0.5 µg/mL (≈ 0.769 µM) | 0.03 to 1 µg/mL (≈ 0.0461 to 1.54 µM) | 4 µg/mL (≈ 6.15 µM) | 8 µg/mL (≈ 12.3 µM) | 0.12 µg/mL (≈ 0.185 µM) | 0.25 µg/mL (≈ 0.384 µM) | 0.06 to 0.5 µg/mL (≈ 0.0923 to 0.769 µM) | ≤ 0.008 µg/mL | 0.03 µg/mL (≈ 0.0461 µM) | 0.008 to 0.06 µg/mL (≈ 0.0123 to 0.0923 µM) | –
4 | CC(=N)NCC[C@@H]1CCC[C@@H](c2ccc(-n3cc4cc(-c5cc(CCC[C@H](C)N)cc(Cl)c5F)[nH]c4nc3=O)cc2C)N1 [RX-D8] | 0.06 µg/mL (≈ 0.099 µM) | 0.12 µg/mL (≈ 0.198 µM) | 0.03 to 0.25 µg/mL (≈ 0.0495 to 0.412 µM) | 0.25 µg/mL (≈ 0.412 µM) | 0.5 µg/mL (≈ 0.825 µM) | 0.06 to 0.5 µg/mL (≈ 0.099 to 0.825 µM) | 8 µg/mL (≈ 13.2 µM) | > 8 µg/mL | 0.03 µg/mL (≈ 0.0495 µM) | 0.06 µg/mL (≈ 0.099 µM) | 0.004 to 0.12 µg/mL (≈ 0.0066 to 0.198 µM) | ≤ 0.008 µg/mL | ≤ 0.008 µg/mL | 0.008 to 0.015 µg/mL (≈ 0.0132 to 0.0247 µM) | –
5 | CC(=N)NCC[C@@H]1CSC[C@@H](c2ccc(-n3cc4cc(-c5cc(CCC[C@H](C)N)cc(Cl)c5F)[nH]c4nc3=O)cc2)N1 [RX-D9] | 0.12 µg/mL (≈ 0.197 µM) | 0.25 µg/mL (≈ 0.41 µM) | 0.03 to 0.5 µg/mL (≈ 0.0492 to 0.819 µM) | 0.12 µg/mL (≈ 0.197 µM) | 0.25 µg/mL (≈ 0.41 µM) | 0.06 to 0.5 µg/mL (≈ 0.0983 to 0.819 µM) | 2 µg/mL (≈ 3.28 µM) | 4 µg/mL (≈ 6.56 µM) | 0.12 µg/mL (≈ 0.197 µM) | 0.25 µg/mL (≈ 0.41 µM) | 0.03 to 2 µg/mL (≈ 0.0492 to 3.28 µM) | 0.06 µg/mL (≈ 0.0983 µM) | 0.12 µg/mL (≈ 0.197 µM) | 0.008 to 0.12 µg/mL (≈ 0.0131 to 0.197 µM) | 0.5 to 4 µg/mL (≈ 0.819 to 6.56 µM)
6 | C=CCN1[C@H](CCNC(C)=N)CCC[C@H]1c1ccc(-n2cc3cc(-c4cc(CCC[C@H](C)N)cc(Cl)c4F)[nH]c3nc2=O)cc1 [RX-D10] | 0.12 µg/mL (≈ 0.19 µM) | 0.25 µg/mL (≈ 0.395 µM) | 0.06 to 0.25 µg/mL (≈ 0.0949 to 0.395 µM) | 0.12 µg/mL (≈ 0.19 µM) | 0.5 µg/mL (≈ 0.791 µM) | 0.03 to 0.5 µg/mL (≈ 0.0475 to 0.791 µM) | 2 µg/mL (≈ 3.16 µM) | 4 µg/mL (≈ 6.33 µM) | 0.12 µg/mL (≈ 0.19 µM) | 0.5 µg/mL (≈ 0.791 µM) | 0.03 to 2 µg/mL (≈ 0.0475 to 3.16 µM) | 0.12 µg/mL (≈ 0.19 µM) | 0.25 µg/mL (≈ 0.395 µM) | 0.008 to 0.25 µg/mL (≈ 0.0127 to 0.395 µM) | 0.25 to 8 µg/mL (≈ 0.395 to 12.7 µM)
7 | C[C@H](N)CCCc1cc(Cl)c(F)c(-c2cc3cn(-c4ccc([C@@H]5CCC[C@@H](CCSC(=N)N)N5)c(F)c4)c(=O)nc3[nH]2)c1 [RX-D11] | 0.06 µg/mL (≈ 0.0955 µM) | 0.12 µg/mL (≈ 0.191 µM) | 0.03 to 0.25 µg/mL (≈ 0.0478 to 0.398 µM) | 0.12 µg/mL (≈ 0.191 µM) | 0.25 µg/mL (≈ 0.398 µM) | 0.004 to 0.25 µg/mL (≈ 0.00637 to 0.398 µM) | 1 µg/mL (≈ 1.59 µM) | 2 µg/mL (≈ 3.18 µM) | 0.06 µg/mL (≈ 0.0955 µM) | 0.12 µg/mL (≈ 0.191 µM) | 0.008 to 1 µg/mL (≈ 0.0127 to 1.59 µM) | 0.12 µg/mL (≈ 0.191 µM) | 0.25 µg/mL (≈ 0.398 µM) | 0.008 to 0.5 µg/mL (≈ 0.0127 to 0.796 µM) | 0.25 to 8 µg/mL (≈ 0.398 to 12.7 µM)
8 | C[C@H](N)CCCc1cc(Cl)c(F)c(-c2cc3cn(-c4ccc([C@H]5CC[C@H](CCNC(=N)N)N5)cc4)c(=O)nc3[nH]2)c1 [RX-D13] | 0.06 µg/mL (≈ 0.104 µM) | 0.12 µg/mL (≈ 0.207 µM) | 0.008 to 0.12 µg/mL (≈ 0.0138 to 0.207 µM) | 0.06 µg/mL (≈ 0.104 µM) | 0.25 µg/mL (≈ 0.432 µM) | 0.03 to 0.25 µg/mL (≈ 0.0518 to 0.432 µM) | 1 µg/mL (≈ 1.73 µM) | 4 µg/mL (≈ 6.91 µM) | 0.015 µg/mL (≈ 0.0259 µM) | 0.06 µg/mL (≈ 0.104 µM) | 0.004 to 0.12 µg/mL (≈ 0.00691 to 0.207 µM) | 0.06 µg/mL (≈ 0.104 µM) | 0.06 µg/mL (≈ 0.104 µM) | 0.008 to 0.12 µg/mL (≈ 0.0138 to 0.207 µM) | 0.25 to 8 µg/mL (≈ 0.432 to 13.8 µM)
